Laboratory results as given in US4175081A, “5-Substituted thiadiazole ureas” (priority 1977, dated 1979).

What was measured:
[1] = system: Corn (CN); experiment: Pre-emergence herbicide test; format: in vivo; conditions: Zea mays, 336 h, 8 lb/acre, two weeks after treatment
Method in brief: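 Four corn seeds per pot, sown at seed-diameter depth one day before spraying, got soil surface treatment at 8 lbs/acre (4 lbs/acre formulations also prepared) in 38 gallons/acre. Pots were greenhouse-held with sub-irrigation only. Injury or control was scored visually two weeks after treatment.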

[2] = system: Turnip (TP); experiment: Pre-emergence herbicide test; format: in vivo, Brassica sp.; conditions: Brassica rapa, pre-emergence, 336 h; 8 lb/acre; two weeks after treatment
Method in brief: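 Turnip (Brassica sp.) seeds were surface sown in 3' plastic pots of potting soil, covered with a thin layer of screened soil, and sub-irrigated in greenhouse trays. Pots were seeded one day ahead of treatment, sprayed pre-emergence under a hood with a fixed nozzle and moving belt, then kept in the greenhouse.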

[3] = system: Cotton (CT); experiment: Pre-emergence herbicide test; format: in vivo, Gossypium hirsutum var. DPL smooth leaf; conditions: Gossypium hirsutum, 336 h, 8 lb/acre, two weeks after treatment
Method in brief: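 Crop and weed species seeded one day before treatment, then sprayed pre-emergence at 8 lbs actual compound per acre (also 4 lbs/acre formulations) in 38 gallons per acre. Pots kept in greenhouse with sub-irrigation only; injury or control visually rated two weeks after treatment.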

[4] = system: Turnip (TP); experiment: Post-emergence herbicide test; format: in vivo, Brassica sp.; conditions: Brassica rapa, post-emergence, 336 h; 8 lb/acre; two weeks after treatment
Method in brief: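 A greenhouse post-emergence herbicide test on turnip. Seeds were sown on the surface of potting soil in 3' plastic pots, lightly covered with screened soil and watered from below. Planting was timed so seedlings had 1 or 2 true leaves above the cotyledons at spraying, done in a hood with a fixed nozzle. Control or injury was scored by eye after two weeks.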

[5] = system: Bean (BN); experiment: Pre-emergence herbicide test; format: in vivo, Phaseolus vulgaris var. Black Valentine; conditions: Phaseolus vulgaris, 336 h, 8 lb/acre, two weeks after treatment
Method in brief: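 Black Valentine bean was seeded in potting soil one day before spraying. Compound was applied pre-emergence at 8 lbs/acre (also 4 lbs/acre) in 38 gallons per acre. Plants were sub-irrigated and injury or control was rated visually after two weeks.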

[6] = system: Crabgrass (CG); experiment: Post-emergence herbicide test; format: in vivo, Digitaria sanquinalis; conditions: Digitaria sanguinalis, post-emergence, 336 h; 8 lb/acre; two weeks after treatment
Method in brief: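 Crabgrass (Digitaria sanquinalis) was surface seeded individually in 3' plastic pots of potting soil, covered with screened soil, and watered by sub-irrigation in greenhouse trays. Planting was staggered so seedlings reached the target stage together. Post-emergence sprays were applied in a hood with a removable belt and fixed nozzle, and control was visually rated two weeks after treatment.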

[7] = system: Barnyard grass (BG); experiment: Pre-emergence herbicide test; format: in vivo; conditions: Echinochloa crus-galli, 336 h, 8 lb/acre, two weeks after treatment
Method in brief: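 Barnyard grass surface-seeded in potting soil and sprayed pre-emergence one day after seeding, at 8 or 4 lb compound/acre in 38 gal/acre spray volume. Pots kept in greenhouse with sub-irrigation only; injury or control rated visually two weeks after treatment.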

[8] = system: Amaranth pigweed (PW); experiment: Post-emergence herbicide test; format: in vivo, Amaranthus retroflexus; conditions: 336 h, 8 lb/acre, two weeks after treatment
Method in brief: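 Pot-grown pigweed was sprayed post-emergence at the 1–2 true-leaf stage with compound at rates equivalent to 8 lbs per acre (formulations also prepared for 4 lbs/acre) in 38 gallons per acre, using a hood with fixed nozzle. Plants were sub-irrigated in the greenhouse, and injury or control was rated visually two weeks after treatment.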

[9] = system: Corn (CN); experiment: Post-emergence herbicide test; format: in vivo; conditions: Zea mays, 336 h, 8 lb/acre, two weeks after treatment
Method in brief: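 Greenhouse seedlings grown in potting soil and sprayed post-emergence at 8 lbs compound/acre (formulations also made for 4 lbs/acre) in 38 gallons/acre spray volume. Watering by sub-irrigation only. Injury or control rated visually two weeks after treatment.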

[10] = system: Amaranth pigweed (PW); experiment: Pre-emergence herbicide test; format: in vivo, Amaranthus retroflexus; conditions: 336 h, 8 lb/acre, two weeks after treatment
Method in brief: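 Pigweed was surface-seeded in potted soil one day before spraying at 8 lbs compound per acre, or 4 lbs/acre, in 38 gallons per acre. Pots were kept in the greenhouse with sub-irrigation only; injury or control was rated visually two weeks after treatment.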

[11] = system: Barnyard grass (BG); experiment: Post-emergence herbicide test; format: in vivo; conditions: Echinochloa crus-galli, 336 h, 8 lb/acre, two weeks after treatment
Method in brief: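 Greenhouse pot-grown barnyard grass seedlings sprayed post-emergence at 8 lbs active compound per acre (some at 4 lbs/acre) in 38 gallons per acre, then sub-irrigated. Injury or control rated visually two weeks after treatment.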

[12] = system: Johnson grass (JG); experiment: Post-emergence herbicide test; format: in vivo, Sorgum helepense; conditions: Sorghum halepense, 336 h, 8 lb/acre, two weeks after treatment
Method in brief: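 Greenhouse pot-grown seedlings sprayed post-emergence at 8 lbs compound per acre (some at 4 lbs/acre) in 38 gallons per acre spray volume. Sub-irrigated thereafter. Injury/control rated visually two weeks after treatment.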

[13] = system: Johnson grass (JG); experiment: Pre-emergence herbicide test; format: in vivo, Sorgum helepense; conditions: Sorghum halepense, 336 h, 8 lb/acre, two weeks after treatment
Method in brief: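 Pots seeded one day before spraying; compound applied pre-emergence at 8 lbs/acre (or 4 lbs/acre) in 38 gallons/acre spray volume. Sub-irrigated in greenhouse; injury/control rated visually two weeks after treatment.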

[14] = system: Cotton (CT); experiment: Post-emergence herbicide test; format: in vivo, Gossypium hirsutum var. DPL smooth leaf; conditions: Gossypium hirsutum, post-emergence, 336 h; 8 lb/acre; two weeks after treatment
Method in brief: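 Cotton (Gossypium hirsutum var. DPL smooth leaf) was grown in 3' plastic pots of potting soil, four seeds per pot, planted at a depth equal to the seed diameter and watered by sub-irrigation. At the stage of expanded cotyledons with the first true leaf 1' long, plants were sprayed post-emergence in a hood with a fixed nozzle over a moving belt. Percent control was rated visually two weeks later.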

[15] = system: Bean (BN); experiment: Post-emergence herbicide test; format: in vivo, Phaseolus vulgaris var. Black Valentine; conditions: Phaseolus vulgaris, post-emergence, 336 h; 8 lb/acre; two weeks after treatment
Method in brief: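 Snapbean (Phaseolus vulgaris var. Black Valentine) was tested post-emergence. Four seeds were sown in 3' plastic pots of potting soil at a depth equal to the seed diameter, then sub-irrigated in greenhouse trays. Planting dates were staggered so plants were sprayed once primary leaves had expanded, with the growing point at the primary leaf nodes.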

[16] = system: Yellow foxtail grass (YF); experiment: Pre-emergence herbicide test; format: in vivo, Setaria glauca; conditions: Setaria, 336 h, 8 lb/acre, two weeks after treatment
Procedure: Yellow foxtail grass (YF)--Setaria glauca
All crop and weed species were planted individually in 3' plastic pots containing potting soil. Four seeds each of corn, cotton, and snapbeans were seeded to a depth equal to the diameter of the seed. All other species were surface seeded and sprinkled with screened soil in an amount sufficient to cover the seed. Immediately after planting, all pots were watered by sub-irrigation in greenhouse trays. Pots for the pre-emergence phase were seeded one day before treatment.
Compounds were tested at rates of application equivalent to 8 lbs. of actual compound per acre in a spray volume of 38 gallons per acre. Spray hood constants required to deliver the above volume are as follows:
Formulations for spray applications were prepared in 50 ml volumes with the following three components:
Formulations for the 4 lbs/acre rate were prepared by adjusting the amount of active ingredient accordingly.
Spray applications were made in a hood containing a removable belt and fixed spray nozzle. For passage through the spray hood, one pot of each specie (pre-emergence phase) was placed on the rear half of the flat. Treatments were removed to the greenhouse after spraying. Watering during the observation period was done only by sub-irrigation.
Two weeks after treatment, pre- and post-emergence injury or control was visually rated, and the results were as shown in the following tables. Pre-emergence data are provided in TABLE III and post-emergence data are provided in TABLE IV, for compounds having the formula illustrated in TABLE I. Correspondingly, pre-emergence and post-emergence data, respectively, are set forth in TABLES V AND VI, for compounds having the formula illustrated in TABLE II.

[17] = system: Yellow foxtail grass (YF); experiment: Post-emergence herbicide test; format: in vivo, Setaria glauca; conditions: Setaria, 336 h, 8 lb/acre, two weeks after treatment
Method in brief: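 Potted seedlings grown in greenhouse, planting staggered to reach the target stage together, then sprayed post-emergence at 8 lbs actual compound/acre in 38 gallons/acre (4 lbs/acre formulations also prepared). Sub-irrigated afterwards. Injury or control rated visually two weeks after treatment.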

[18] = system: Crabgrass (CG); experiment: Pre-emergence herbicide test; format: in vivo, Digitaria sanquinalis; conditions: Digitaria sanguinalis, pre-emergence, 336 h; 8 lb/acre; two weeks after treatment
Method in brief: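 Crabgrass (Digitaria sanquinalis) was surface seeded in 3' plastic pots of potting soil, covered with screened soil, and watered by sub-irrigation in greenhouse trays. Pots were seeded one day before spraying in a hood with a moving belt and fixed nozzle. Plants stayed in the greenhouse on sub-irrigation, and pre-emergence control was rated visually two weeks after treatment.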

Molecule CCCNC(=O)Nc1nnc(SC)s1 [Example 29] has a pest or weed control at 8966.8 g/ha [1] of 30%, a pest or weed control at 8966.8 g/ha [2] of 0% and a pest or weed control at 8966.8 g/ha [3] of 30%. The pest or weed control at 8966.8 g/ha [4] was 40%, the pest or weed control at 8966.8 g/ha [5] was 80% and the pest or weed control at 8966.8 g/ha [6] was 30%. For the same molecule, the pest or weed control at 8966.8 g/ha [7] was 10%, the pest or weed control at 8966.8 g/ha [8] was 40% and the pest or weed control at 8966.8 g/ha [9] was 20%. It also gave a pest or weed control at 8966.8 g/ha [10] of 10%, a pest or weed control at 8966.8 g/ha [11] of 20% and a pest or weed control at 8966.8 g/ha [12] of 20%. The pest or weed control at 8966.8 g/ha [13] was 10%, the pest or weed control at 8966.8 g/ha [14] was 60% and the pest or weed control at 8966.8 g/ha [15] was 100%. It also gave a pest or weed control at 8966.8 g/ha [16] of 10%, a pest or weed control at 8966.8 g/ha [17] of 20% and a pest or weed control at 8966.8 g/ha [18] of 20%.
C=CCNC(=O)Nc1nnc(SC)s1 [Example 31] gave a pest or weed control at 8966.8 g/ha [1] of 10%, a pest or weed control at 8966.8 g/ha [2] of 30% and a pest or weed control at 8966.8 g/ha [3] of 30%. For the same molecule, the pest or weed control at 8966.8 g/ha [4] was 50%, the pest or weed control at 8966.8 g/ha [5] was 80% and the pest or weed control at 8966.8 g/ha [6] was 30%. It also gave a pest or weed control at 8966.8 g/ha [7] of 30%, a pest or weed control at 8966.8 g/ha [8] of 90% and a pest or weed control at 8966.8 g/ha [9] of 20%. It also gave a pest or weed control at 8966.8 g/ha [10] of 20%, a pest or weed control at 8966.8 g/ha [11] of 20% and a pest or weed control at 8966.8 g/ha [12] of 30%. The pest or weed control at 8966.8 g/ha [13] was 20%, the pest or weed control at 8966.8 g/ha [14] was 100% and the pest or weed control at 8966.8 g/ha [15] was 100%. It also gave a pest or weed control at 8966.8 g/ha [16] of 70%, a pest or weed control at 8966.8 g/ha [17] of 30% and a pest or weed control at 8966.8 g/ha [18] of 70%.
For CCSc1nnc(NC(=O)NC)s1 [Example 32], the pest or weed control at 8966.8 g/ha [1] was 70%, the pest or weed control at 8966.8 g/ha [2] was 90% and the pest or weed control at 8966.8 g/ha [3] was 50%. For the same molecule, the pest or weed control at 8966.8 g/ha [4] was 90%, the pest or weed control at 8966.8 g/ha [5] was 80% and the pest or weed control at 8966.8 g/ha [6] was 100%. The pest or weed control at 8966.8 g/ha [7] was 90%, the pest or weed control at 8966.8 g/ha [8] was 100% and the pest or weed control at 8966.8 g/ha [9] was 60%. It also gave a pest or weed control at 8966.8 g/ha [10] of 100%, a pest or weed control at 8966.8 g/ha [11] of 100% and a pest or weed control at 8966.8 g/ha [12] of 90%. For the same molecule, the pest or weed control at 8966.8 g/ha [13] was 70%, the pest or weed control at 8966.8 g/ha [14] was 100% and the pest or weed control at 8966.8 g/ha [15] was 100%. It also gave a pest or weed control at 8966.8 g/ha [16] of 90%, a pest or weed control at 8966.8 g/ha [17] of 90% and a pest or weed control at 8966.8 g/ha [18] of 90%.
